Experimental data as given in patent US11332459B2 (TEIJIN PHARMA LIMITED, priority 2017, dated 2022).
pIC50: −log10 of the molar value. Where a name gives a salt, the structure may show the parent alone.

Target: T1, human TRPC6 (Homo sapiens, UniProt Q9Y210)
T1 construct: expressed in transfected cells
T1 sequence (Q9Y210 1-931): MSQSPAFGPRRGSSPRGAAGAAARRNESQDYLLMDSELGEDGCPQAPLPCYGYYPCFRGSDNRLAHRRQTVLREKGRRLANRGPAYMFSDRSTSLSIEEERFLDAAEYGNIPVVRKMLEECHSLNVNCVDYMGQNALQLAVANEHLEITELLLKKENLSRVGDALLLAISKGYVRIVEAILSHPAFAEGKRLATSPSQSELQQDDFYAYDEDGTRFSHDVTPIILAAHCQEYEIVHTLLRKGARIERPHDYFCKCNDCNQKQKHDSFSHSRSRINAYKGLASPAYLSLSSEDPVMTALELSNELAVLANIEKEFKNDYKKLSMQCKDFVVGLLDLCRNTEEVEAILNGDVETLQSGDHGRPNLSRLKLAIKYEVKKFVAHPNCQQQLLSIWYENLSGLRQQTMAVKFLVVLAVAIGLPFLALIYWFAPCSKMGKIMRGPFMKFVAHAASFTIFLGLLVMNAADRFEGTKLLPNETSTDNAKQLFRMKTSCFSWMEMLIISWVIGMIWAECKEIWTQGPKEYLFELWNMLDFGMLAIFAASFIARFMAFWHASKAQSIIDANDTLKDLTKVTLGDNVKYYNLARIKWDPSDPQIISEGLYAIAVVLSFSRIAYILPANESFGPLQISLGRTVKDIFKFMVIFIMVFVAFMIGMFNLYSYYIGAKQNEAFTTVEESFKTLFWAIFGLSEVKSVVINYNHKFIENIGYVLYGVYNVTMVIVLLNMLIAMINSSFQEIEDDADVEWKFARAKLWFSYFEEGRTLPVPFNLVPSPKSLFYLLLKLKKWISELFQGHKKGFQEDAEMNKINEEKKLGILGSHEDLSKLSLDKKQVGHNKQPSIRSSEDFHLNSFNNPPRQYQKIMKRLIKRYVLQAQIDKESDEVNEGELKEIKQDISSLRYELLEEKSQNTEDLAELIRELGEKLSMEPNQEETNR
Test: TRPC6 calcium flux assay (FLIPR, OAG-stimulated calcium influx)
Format: cell-based
Details: HEK293 cells stably transfected with human TRPC6, read-out: hTRPC6 Potency
How it was run: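 HEK293 cells stably expressing human TRPC6, loaded with calcium dye 90–120 min at RT, then given compound for 25 min before OAG (50 uM final, 0.5% DMSO) in HEPES buffer pH 7.2 with 2 mM CaCl2. Background-subtracted FLIPR peak over 180 s normalized to OAG vs buffer; IC50 from dose plot.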

| pIC50 | SMILES |
| --- | --- |
| 6.81 | Cc1nc(Cn2c(N3CC[C@@H](F)[C@H](N)C3)nc3cc(F)c(F)cc32)oc1C [Example 575, (3R,4R)-1-(1-((4,5-dimethyloxazol-2-yl)methyl)-5,6-difluoro-1H-benzo[d]imidazol-2-yl)-4-fluoropiperidin-3-amine] |
| 6.45 | COc1cc(Cl)ccc1Cn1c(N2CC[C@@H](F)[C@H](N)C2)nc2cc(F)c(F)cc21 [Example 350, (3R,4R)-1-(1-(4-chloro-2-methoxybenzyl)-5,6-difluoro-1H-benzimidazol-2-yl)-4-fluoro-3-piperidinamine] |
| 8.04 | CN(C)C(=O)Cn1c(N2CC[C@@H](F)[C@H](N)C2)nc2ccc(Cl)cc21 [Example 502, 2-(2-((3R,4R)-3-amino-4-fluoropiperidin-1-yl)-6-chloro-1H-benzo[d]imidazol-1-yl)-N,N-dimethylacetamide] |
| 9.35 | N#Cc1ccc(Cn2c(N3CC[C@@H](F)[C@H](N)C3)nc3cc(F)c(F)cc32)nc1 [Example 72, 6-((2-((3R,4R)-3-amino-4-fluoropiperidin-1-yl)-5,6-difluoro-1H-benzo[d]imidazol-1-yl)methyl)nicotinonitrile] |
| 8.83 | C[C@@H](C(=O)N(C)C)n1c(N2CC[C@@H](F)[C@H](N)C2)nc2cc(F)c(F)cc21 [Example 280, (2S)-2-(2-((3R,4R)-3-amino-4-fluoro-1-piperidinyl)-5,6-difluoro-1H-benzimidazol-1-yl)-N,N-dimethylpropanamide] |
| 6.62 | CN(CC1CCOC1)C(=O)Cn1c(N2CC[C@@H](F)[C@H](N)C2)nc2cc(F)c(F)cc21 (mixture of isomers) [Example 633, 2-(2-((3R,4R)-3-amino-4-fluoropiperidin-1-yl)-5,6-difluoro-1H-benzo[d]imidazol-1-yl)-N-methyl-N-((tetrahydrofuran-3-yl)methyl)acetamide] |
| 7.03 | N[C@@H]1CN(c2nc3cc(Cl)ccc3n2CC(=O)N2CCOCC2)CC[C@H]1F [Example 497, -(2-((3R,4R)-3-amino-4-fluoropiperidin-1-yl)-5-chloro-1H-benzo[d]imidazol-1-yl)-1-morpholinoethanone] |
| 6.82 | CC(C)NC(=O)Cn1c(N2CC[C@@H](F)[C@H](N)C2)nc2cc(F)c(F)cc21 [Example 235, 2-(2-((3R,4R)-3-amino-4-fluoropiperidin-1-yl)-5,6-difluoro-1H-benzo[d]imidazol-1-yl)-N-isopropylacetamide] |
| 5.68 | CC1(C)COCCN1C(=O)Cn1c(N2CC[C@@H](F)[C@H](N)C2)nc2ccc(F)cc21 [Example 687, 2-(2-((3R,4R)-3-amino-4-fluoropiperidin-1-yl)-6-fluoro-1H-benzo[d]imidazol-1-yl)-1-(3,3-dimethylmorpholino)ethan-1-one] |
| 6.93 | N[C@@H]1CN(c2nc3cc(F)c(F)cc3n2CC(=O)N2CCC(OC(F)F)C2)CC[C@H]1F (stereo partly drawn) [Example 626, 2-(2-((3R,4R)-3-amino-4-fluoropiperidin-1-yl)-5,6-difluoro-1H-benzo[d]imidazol-1-yl)-1-(3-(difluoromethoxy)pyrrolidin-1-yl)ethanone] |
| 6.13 | CN(C)C(=O)Cn1c(N2CC[C@@H](F)[C@H](N)C2)nc2cc(F)c(F)cc21 [Example 278, 2-(2-((3R,4R)-3-amino-4-fluoro-1-piperidinyl)-5,6-difluoro-1H-benzimidazol-1-yl)-N,N-dimethylacetamide] |
| 5.76 | CN(C)C(=O)Cn1c(N2CC[C@@H](F)[C@H](N)C2)nc2cc(C(F)(F)F)ccc21 [Example 592, 2-(2-((3R,4R)-3-amino-4-fluoropiperidin-1-yl)-5-(trifluoromethyl)-1H-benzo[d]imidazol-1-yl)-N,N-dimethylacetamide] |
| 6.13 | N[C@@H]1CN(c2nc3ccc(F)cc3n2CC(=O)N(CC(F)(F)F)[C@H]2CCOC2)CC[C@H]1F [Example 667, 2-(2-((3R,4R)-3-amino-4-fluoropiperidin-1-yl)-6-fluoro-1H-benzo[d]imidazol-1-yl)-N-((S)-tetrahydrofuran-3-yl)-N-(2,2,2-trifluoroethyl)acetamide] |
| 7.05 | N[C@@H]1CN(c2nc3cc(F)c(F)cc3n2CC(=O)N2C[C@@H]3[C@H](C2)C3(F)F)CC[C@H]1F [Example 623, 2-(2-((3R,4R)-3-amino-4-fluoropiperidin-1-yl)-5,6-difluoro-1H-benzo[d]imidazol-1-yl)-1-((1R,5S)-6,6-difluoro-3-azabicyclo[3.1.0]hexan-3-yl)ethanone] |

Further lines, the compound ahead of its results:

| SMILES | pIC50 |
| --- | --- |
| N#Cc1ccc(Cn2c(N3CC[C@@H](F)[C@H](N)C3)nc3c(Cl)cc(F)cc32)nc1 [Example 144, 6-((2-((3R,4R)-3-amino-4-fluoropiperidin-1-yl)-4-chloro-6-fluoro-1H-benzo[d]imidazol-1-yl)methyl)nicotinonitrile 2,2,2-trifluoroacetate] | 9.34 |
| N#Cc1ccc(Cn2c(N3CC[C@@H](O)[C@H](N)C3)nc3ccc(Cl)cc32)nc1 [Example 152, 6-((2-((3R,4R)-3-amino-4-hydroxypiperidin-1-yl)-6-chloro-1H-benzo[d]imidazol-1-yl)methyl)nicotinonitrile] | 7.17 |
| C[C@H](c1cc(Cl)ccc1Cl)n1c(N2CC[C@@H](F)[C@H](N)C2)nc2cc(F)c(F)cc21 [Example 328, (3R,4R)-1-(1-((1R)-1-(2,5-dichlorophenyl)ethyl)-5,6-difluoro-1H-benzimidazol-2-yl)-4-fluoro-3-piperidinamine] | < 5.43 |
| N[C@@H]1CN(c2nc3cc(F)c(F)cc3n2Cc2ccc(F)cc2C(F)(F)F)CC[C@H]1F [Example 356, (3R,4R)-1-(5,6-difluoro-1-(4-fluoro-2-(trifluoromethyl)benzyl)-1H-benzimidazol-2-yl)-4-fluoro-3-piperidinamine] | 6.62 |
| N#Cc1ccc(Cn2c(N3CCC(F)(F)C(N)C3)nc3ccc(F)cc32)cc1 (stereo in doubt) [Example 416, 4-((2-((3R)-3-amino-4,4-difluoro-1-piperidinyl)-6-fluoro-1H-benzimidazo-1-yl)methyl)benzonitrile] | 8.63 |
| N#Cc1ccc(Cn2c(N3CC[C@@H](F)[C@H](N)C3)nc3cc(OC(F)(F)F)ccc32)nc1 [Example 20, 6-((2-((3R,4R)-3-amino-4-fluoropiperidin-1-yl)-5-(trifluoromethoxy)-1H-benzo[d]imidazol-1-yl)methyl)nicotinonitrile] | 8.72 |
| N#Cc1ccc(Cn2c(N3CC[C@H](F)[C@H](N)C3)nc3ccc(F)cc32)nc1 [Example 47, 6-((2-((3R,4S)-3-amino-4-fluoropiperidin-1-yl)-6-fluoro-1H-benzo[d]imidazol-1-yl)methyl)nicotinonitrile hydrochloride] | 9.16 |
| N[C@@H]1CCCN(c2nc3ccccc3n2Cc2ccc(F)cc2)C1 [Example 387, (R)-1-(1-(4-fluorobenzyl)-1H-benzo[d]imidazol-2-yl)piperidin-3-amine] | 5.27 |
| N#Cc1ccc(Cn2c(N3CC[C@@H](F)[C@H](N)C3)nc3cc(Cl)c(Cl)cc32)nc1 [Example 43, 6-((2-((3R,4R)-3-amino-4-fluoropiperidin-1-yl)-5,6-dichloro-1H-benzo[d]imidazol-1-yl)methyl)nicotinonitrile] | 9.24 |
| CN[C@@H]1CN(c2nc3ccc(F)cc3n2CC(=O)N(C)CC(F)(F)F)CC[C@H]1F [Example 469, 2-(6-fluoro-2-((3R,4R)-4-fluoro-3-(methylamino)piperidin-1-yl)-1H-benzo[d]imidazol-1-yl)-N-methyl-N-(2,2,2-trifluoroethyl)acetamide] | 6.72 |
| C[C@@H](c1ccc(Cl)cn1)n1c(N2CC[C@@H](F)[C@H](N)C2)nc2ccccc21 [Example 216, (3R,4R)-1-(1-((S)-1-(5-chloropyridin-2-yl)ethyl)-1H-benzo[d]imidazol-2-yl)-4-fluoropiperidin-3-amine hydrochloride] | 7.94 |
| C[C@@H](c1cccc(Cl)c1)n1c(N2CC[C@@H](F)[C@H](N)C2)nc2cc(F)c(F)cc21 [Example 327, (3R,4R)-1-(1-((1S)-1-(3-chlorophenyl)ethyl)-5,6-difluoro-1H-benzimidazol-2-yl)-4-fluoro-3-piperidinamine] | 5.86 |
| C[C@H](c1ccc(C#N)cn1)n1c(N2CC[C@@H]3OCCN[C@H]3C2)nc2cc(F)cc(F)c21 [Example 272, 6-((1R)-1-(5,7-difluoro-2-((4aS,8aS)-hexahydro-2H-pyrido[4,3-b][1,4]oxazin-6(5H)-yl)-1H-benzimidazol-1-yl)ethyl)-3-pyridinecarbonitrile] | 8.55 |
